Counter-ions that a name gives are not always drawn. Like-named read-outs stand apart in the source and are kept apart here.
Assays:
Experiment in all cases: AK assay 384-well format, Prestwick library screening
E. cloacae = format: cell-based, Enterobacter cloacae; settings: 50 μM final drug concentration; for fold induction at 50 µM: Enterobacter cloacae, 3 h
E. coli = format: cell-based, Escherichia coli; settings: for fold induction at 50 µM: Escherichia coli, 3 h
E. faecium = format: cell-based, Enterococcus faecium; settings: 50 μM final drug concentration; for fold induction at 50 µM: Enterococcus faecium, 3 h
[1] = test system: S. aureus strain USA300-0114; format: cell-based, Staphylococcus aureus; settings: 50 μM final drug concentration; for fold induction at 50 µM: Staphylococcus aureus, USA300, 3 h
[2] = test system: A. baumannii strain 98-37-09; format: cell-based, Acinetobacter baumannii; settings: 50 μM final drug concentration; for fold induction at 50 µM: Acinetobacter baumannii, 983709, 3 h
P. aeruginosa = format: cell-based, Pseudomonas aeruginosa; settings: 50 μM final drug concentration; for fold induction at 50 µM: Pseudomonas aeruginosa, 3 h
K. pneumoniae = format: cell-based, Klebsiella pneumoniae; settings: 50 μM final drug concentration; for fold induction at 50 µM: Klebsiella pneumoniae, 3 h
[3] = planktonic E. cloacae, 384-well, cutoff for positive-scoring molecules 3-fold increase, read-out: AK-based Prestwick Library Screening Results: E. cloacae (increase in extracellular AK activity)
[4] = planktonic E. coli, 50 μM final drug concentration, 384-well, cutoff for positive-scoring molecules 3-fold increase, read-out: AK-based Prestwick Library Screening Results: E. coli (increase in extracellular AK activity)
[5] = planktonic E. faecium, 384-well, cutoff for positive-scoring molecules 3-fold increase, read-out: AK-based Prestwick Library Screening Results: E. faecium (increase in extracellular AK activity)
[6] = planktonic S. aureus, 384-well, cutoff for positive-scoring molecules 3-fold increase, read-out: AK-based Prestwick Library Screening Results: S. aureus (increase in extracellular AK activity)
[7] = planktonic A. baumannii, 384-well, cutoff for positive-scoring molecules 3-fold increase, read-out: AK-based Prestwick Library Screening Results: A. baumannii (increase in extracellular AK activity)
[8] = planktonic P. aeruginosa, 384-well, cutoff for positive-scoring molecules 3-fold increase, read-out: AK-based Prestwick Library Screening Results: P. aeruginosa (increase in extracellular AK activity)
[9] = planktonic K. pneumoniae, 384-well, cutoff for positive-scoring molecules 3-fold increase, read-out: AK-based Prestwick Library Screening Results: K. pneumoniae (increase in extracellular AK activity)

Q: Which fold induction at 50 µM (E. cloacae; planktonic E. cloacae, positive cutoff 3-fold increase, read-out: AK-based Prestwick library screening result, E. cloacae (fold increase in extracellular AK activity)) does the source give for `CC1(C)S[C@@H]2[C@H](NC(=O)Cc3ccccc3)C(=O)N2[C@H]1C(=O)O` [Benzylpenicillin sodium] here?
A: 1.2

Q: What about the fold induction at 50 µM (E. coli; planktonic E. coli, 50 μM final drug concentration, positive cutoff 3-fold increase, read-out: AK-based Prestwick library screening result, E. coli (fold increase in extracellular AK activity)) of the same molecule?
A: 11.3

Q: And the fold induction at 50 µM (E. faecium; planktonic E. faecium, positive cutoff 3-fold increase, read-out: AK-based Prestwick library screening result, E. faecium (fold increase in extracellular AK activity))?
A: 1.7

Q: What about the fold induction at 50 µM ([1]; planktonic S. aureus, positive cutoff 3-fold increase, read-out: AK-based Prestwick library screening result, S. aureus (fold increase in extracellular AK activity)) of the same molecule?
A: 0.8

Q: And the fold induction at 50 µM ([2]; planktonic A. baumannii, positive cutoff 3-fold increase, read-out: AK-based Prestwick library screening result, A. baumannii (fold increase in extracellular AK activity))?
A: 2.9

Q: What about the fold induction at 50 µM (P. aeruginosa; planktonic P. aeruginosa, positive cutoff 3-fold increase, read-out: AK-based Prestwick library screening result, P. aeruginosa (fold increase in extracellular AK activity)) of the same molecule?
A: 0.7

Q: And the fold induction at 50 µM (K. pneumoniae; planktonic K. pneumoniae, positive cutoff 3-fold increase, read-out: AK-based Prestwick library screening result, K. pneumoniae (fold increase in extracellular AK activity))?
A: 0.6

Q: For `Clc1ccc(COC(Cn2ccnc2)c2ccc(Cl)cc2Cl)c(Cl)c1` (centres unmarked) [Miconazole], which fold induction at 50 µM (E. cloacae; [3]) is on record?
A: 1.6

Q: What about the fold induction at 50 µM (E. coli; [4]) of the same molecule?
A: 1.4

Q: And the fold induction at 50 µM (E. faecium; [5])?
A: 2.5

Q: And the fold induction at 50 µM [1, 6]?
A: 2.2

Q: And the fold induction at 50 µM [2, 7]?
A: 4.7

Q: And the fold induction at 50 µM (P. aeruginosa; [8])?
A: 1.2

Q: What about the fold induction at 50 µM (K. pneumoniae; [9]) of the same molecule?
A: 1.4

Q: `CC(C)[N+](C)(CCC(C(N)=O)(c1ccccc1)c1ccccc1)C(C)C` [Isopropamide iodide] was tested. Which fold induction at 50 µM (E. cloacae; cutoff for positive-scoring molecules 3-fold increase, read-out: AK-based Prestwick Library Screening Results, E. cloacae (fold increase in extracellular AK activity)) did it give?
A: 1.5

Q: And the fold induction at 50 µM (E. coli; 50 μM final drug concentration, cutoff for positive-scoring molecules 3-fold increase, read-out: AK-based Prestwick Library Screening Results, E. coli (fold increase in extracellular AK activity))?
A: 1.3

Q: And the fold induction at 50 µM (E. faecium; cutoff for positive-scoring molecules 3-fold increase, read-out: AK-based Prestwick Library Screening Results, E. faecium (fold increase in extracellular AK activity))?
A: 1.1

Q: And the fold induction at 50 µM ([1]; cutoff for positive-scoring molecules 3-fold increase, read-out: AK-based Prestwick Library Screening Results, S. aureus (fold increase in extracellular AK activity))?
A: 1.2

Q: What about the fold induction at 50 µM ([2]; cutoff for positive-scoring molecules 3-fold increase, read-out: AK-based Prestwick Library Screening Results, A. baumannii (fold increase in extracellular AK activity)) of the same molecule?
A: 1

Q: And the fold induction at 50 µM (P. aeruginosa; cutoff for positive-scoring molecules 3-fold increase, read-out: AK-based Prestwick Library Screening Results, P. aeruginosa (fold increase in extracellular AK activity))?
A: 1.2

Q: And the fold induction at 50 µM (K. pneumoniae; cutoff for positive-scoring molecules 3-fold increase, read-out: AK-based Prestwick Library Screening Results, K. pneumoniae (fold increase in extracellular AK activity))?
A: 1.1

Q: How did the fold induction at 50 µM (E. cloacae; [3]) turn out when `CC[N+](CC)(CC)CCOc1cccc(OCC[N+](CC)(CC)CC)c1OCC[N+](CC)(CC)CC` [Gallamine triethiodide] was run?
A: 1.5

Q: And the fold induction at 50 µM (E. coli; [4])?
A: 1.3

Q: What about the fold induction at 50 µM (E. faecium; [5]) of the same molecule?
A: 1

Q: And the fold induction at 50 µM [1, 6]?
A: 1.1

Q: What about the fold induction at 50 µM [2, 7] of the same molecule?
A: 1.2

Q: And the fold induction at 50 µM (P. aeruginosa; [8])?
A: 1

Q: And the fold induction at 50 µM (K. pneumoniae; [9])?
A: 1.1

Q: What does the source list for `CCC1(C)CC(=O)NC(=O)C1` [Bemegride]?
A: fold induction at 50 µM (E. cloacae; planktonic, […], read-out: AK-based Prestwick Library Screening Results, E. cloacae (fold increase in extracellular AK activity)): 0.6; fold induction at 50 µM (E. coli; 50 μM final drug concentration, planktonic, […], read-out: AK-based Prestwick Library Screening Results, E. coli (fold increase in extracellular AK activity)): 0.6; fold induction at 50 µM (E. faecium; planktonic, […], read-out: AK-based Prestwick Library Screening Results, E. faecium (fold increase in extracellular AK activity)): 0.9; fold induction at 50 µM ([1]; planktonic, […], read-out: AK-based Prestwick Library Screening Results, S. aureus (fold increase in extracellular AK activity)): 0.7; fold induction at 50 µM ([2]; planktonic, […], read-out: AK-based Prestwick Library Screening Results, A. baumannii (fold increase in extracellular AK activity)): 0.7; fold induction at 50 µM (P. aeruginosa; planktonic, […], read-out: AK-based Prestwick Library Screening Results, P. aeruginosa (fold increase in extracellular AK activity)): 0.6; fold induction at 50 µM (K. pneumoniae; planktonic, […], read-out: AK-based Prestwick Library Screening Results, K. pneumoniae (fold increase in extracellular AK activity)): 0.6

Q: `C[C@H]1O[C@@H](O[C@H]2CC[C@]3(C=O)[C@H]4CC[C@]5(C)[C@@H](C6=CC(=O)OC6)CC[C@]5(O)[C@@H]4CC[C@]3(O)C2)C[C@H](O)[C@@H]1O` [Helveticoside] was tested. Which “AK-based Prestwick Library Screening Results, E. cloacae (fold increase in extracellular AK activity)” value (E. cloacae; planktonic, […]) did it give?
A: 0.4

Q: What about the “AK-based Prestwick Library Screening Results, E. coli (fold increase in extracellular AK activity)” value (E. coli; 50 μM final drug concentration, planktonic, […]) of the same molecule?
A: 0.5

Q: What about the “AK-based Prestwick Library Screening Results, E. faecium (fold increase in extracellular AK activity)” value (E. faecium; planktonic, […]) of the same molecule?
A: 0.9

Q: And the “AK-based Prestwick Library Screening Results, S. aureus (fold increase in extracellular AK activity)” value ([1]; planktonic, […])?
A: 0.4

Q: What about the “AK-based Prestwick Library Screening Results, A. baumannii (fold increase in extracellular AK activity)” value ([2]; planktonic, […]) of the same molecule?
A: 0.4

Q: What about the “AK-based Prestwick Library Screening Results, P. aeruginosa (fold increase in extracellular AK activity)” value (P. aeruginosa; planktonic, […]) of the same molecule?
A: 0.4

Q: And the “AK-based Prestwick Library Screening Results, K. pneumoniae (fold increase in extracellular AK activity)” value (K. pneumoniae; planktonic, […])?
A: 0.5

Q: With `CN(C)CCCN1c2ccccc2Sc2ccc(C(F)(F)F)cc21` [Triflupromazine hydrochloride] as the molecule, how does the fold induction at 50 µM (E. cloacae; planktonic E. cloacae, 384-well, […], read-out: AK-based Prestwick Library Screening Results: E. cloacae (increase in extracellular AK activity)) read?
A: 1.6

Q: What about the fold induction at 50 µM (E. coli; read-out: AK-based Prestwick Library Screening Results: E. coli (increase in extracellular AK activity)) of the same molecule?
A: 1.1

Q: And the fold induction at 50 µM (E. faecium; planktonic E. faecium, 384-well, […], read-out: AK-based Prestwick Library Screening Results: E. faecium (increase in extracellular AK activity))?
A: 0.9

Q: What about the fold induction at 50 µM ([1]; planktonic S. aureus, 384-well, […], read-out: AK-based Prestwick Library Screening Results: S. aureus (increase in extracellular AK activity)) of the same molecule?
A: 1.1

Q: What about the fold induction at 50 µM ([2]; planktonic A. baumannii, 384-well, […], read-out: AK-based Prestwick Library Screening Results: A. baumannii (increase in extracellular AK activity)) of the same molecule?
A: 1.5

Q: What about the fold induction at 50 µM (P. aeruginosa; planktonic P. aeruginosa, 384-well, […], read-out: AK-based Prestwick Library Screening Results: P. aeruginosa (increase in extracellular AK activity)) of the same molecule?
A: 1

Q: And the fold induction at 50 µM (K. pneumoniae; planktonic K. pneumoniae, 384-well, […], read-out: AK-based Prestwick Library Screening Results: K. pneumoniae (increase in extracellular AK activity))?
A: 1

Q: With `CCC1(c2cccc(O)c2)CCCCN(C)C1` (centres unmarked) [Meptazinol hydrochloride] as the molecule, how does the fold induction at 50 µM (E. cloacae; planktonic E. cloacae, […], read-out: AK-based Prestwick library screening result, E. cloacae (fold increase in extracellular AK activity)) read?
A: 1.4

Q: What about the fold induction at 50 µM (E. coli; planktonic E. coli, 50 μM final drug concentration, […], read-out: AK-based Prestwick library screening result, E. coli (fold increase in extracellular AK activity)) of the same molecule?
A: 1.3

Q: And the fold induction at 50 µM (E. faecium; planktonic E. faecium, […], read-out: AK-based Prestwick library screening result, E. faecium (fold increase in extracellular AK activity))?
A: 1.1

Q: What about the fold induction at 50 µM ([1]; planktonic S. aureus, […], read-out: AK-based Prestwick library screening result, S. aureus (fold increase in extracellular AK activity)) of the same molecule?
A: 0.9

Q: And the fold induction at 50 µM ([2]; planktonic A. baumannii, […], read-out: AK-based Prestwick library screening result, A. baumannii (fold increase in extracellular AK activity))?
A: 1.1

Q: What about the fold induction at 50 µM (P. aeruginosa; planktonic P. aeruginosa, […], read-out: AK-based Prestwick library screening result, P. aeruginosa (fold increase in extracellular AK activity)) of the same molecule?
A: 1.1

Q: What about the fold induction at 50 µM (K. pneumoniae; planktonic K. pneumoniae, […], read-out: AK-based Prestwick library screening result, K. pneumoniae (fold increase in extracellular AK activity)) of the same molecule?
A: 0.9

Reference: patent US10004701B2, “Methods and compositions for treating infection” (UNIVERSITY OF ROCHESTER, priority 2012, dated 2018)
